The values below come from US20250208149A1, “WEE1 COMPOUND FOR TREATING UTERINE SEROUS CARCINOMA” (Recurium IP Holdings, LLC, priority 2022, published 2025).

Format in all cases: cell-based
Test [1] has as its system HEC-59 endometrial cancer cells. Nature of the test: Percent inhibition of cell growth, ZN-c3, LB-100 or ZN-c3+LB-100 (cell titer glow). The settings on record: HEC-59 (PPP2R1A wild-type), 72 hours; ZN-c3 400 nM, LB-100 1 μM. On the procedure:
FIG. 18 depicts the percent inhibition of cell growth in HEC-59 endometrial cancer cells after treatment with ZN-c3 alone, the PP2A catalytic inhibitor LB-100 alone, or the combination of ZN-c3+LB-100. HEC-59 cell line is PPP2R1A wild-type. […] Percent inhibition is calculated using cell titer glow analysis.
Various cancer cell lines were treated with ZN-c3 alone, the PP2A catalytic inhibitor LB-100 alone, or the combination of ZN-c3+LB-100. As in Example 1 and Example 2, the treatment period was 72 hours and percent inhibition was calculated using cell titer glow analysis.
The endometrial cancer cell line HEC-59 was assessed for sensitivity to ZN-c3 alone, LB-100 alone, or the combination of ZN-c3+LB-100 (FIG. 18).
On the technique in general: In ATP-based viability assays light output follows the ATP content of the culture.

Test [2] deals with SKOV3 ovarian cancer cells. The test is described as follows: ZN-c3 dose response, percent cell density (cell titer glow), CRISPR knockout of PPP2R1A vs non-targeting guide RNA. The settings on record: Homo sapiens, SK-OV-3, 72 h. The protocol:
FIG. 13 depicts the percent cell density of SKOV3 ovarian cancer cells after treatment with a 10-point dose response of ZN-c3 for 72 hours, comparing cells transduced with a non-targeting guide RNA to against those with genetic knockout of PPP2R1A after transduction with a CRISPR guide RNA targeting PPP2R1A. Percent cell density is calculated using cell titer glow analysis. PPP2R1A CRISPR knockout cells have approximately 1.7-fold increase in sensitivity to ZN-c3 (TABLE 7).
Having observed that siRNA mediated knockdown of PPP2R1A sensitized cancer cell lines to treatment with ZN-c3, it was also of interest to evaluate if CRISPR mediated PPP2R1A knockout produced a similar effect. […] Percent cell density was calculated using cell titer glow analysis.
The ovarian cancer cell line SKOV3 was treated with a CRISPR guide RNA targeting PPP2R1A or nontargeting guide RNA and transfected cells were assessed for sensitivity to ZN-c3 by measurement of reduction in percent cell density (FIG. 13). CRISPR mediated knockout of PPP2R1A was evaluated by comparison of PPP2R1A protein expression via Western blot in conditions treated with nontargeting guide RNA and PPPR12A targeting CRISPR guide RNA with beta actin as a control (FIG. 14).

Another test relates to HEC1B cells. The test is described as follows: ZN-c3 dose response, percent cell density (cell titer glow), PPP2R1A siRNA vs scrambled control. The settings on record: Homo sapiens, HEC-1B, 72 h, HEC1B cells (PPP2R1A W257L; L429F). On the procedure:
(§1) FIG. 11 depicts the percent cell density of HEC1B and HEC-59 (endometrial cancer cell lines) cells after treatment with a 10-point dose response of ZN-c3 for 72 hours, comparing cells transfected with siRNA to PPP2R1A against those transfected with a scrambled control siRNA. […] HEC-59 is PPP2R1A wild-type. Percent cell density is calculated using cell titer glow analysis. HEC1B PPP2R1A siRNA transfected cells have approximately 1.4-fold increase in sensitivity to ZN-c3 while HEC-59 PPP2R1A siRNA transfected cells have approximately 2.5 fold increase in sensitivity to ZN-c3 (TABLE 6).
(§2) The effect of PPP2R1A knockdown on influencing cancer cell susceptibility to ZN-c3 was evaluated. Various cancer cell lines were transfected with PPP2R1A siRNA or control scrambled siRNA and the cells were treated with a 10 point dose response of ZN-c3 for 72 hours. Percent cell density was calculated using cell titer glow analysis. The PPP2R1A siRNA targeted the following bases Chr.19: 52189802-52226425. SiRNA transfection was started 48 hours prior to treatment with ZN-c3. The ZN-c3 dose response evaluation included ZN-c3 dosages at […].
(§3) Endometrial cancer cell lines HEC1B and HEC-59 were treated with PPP2R1A siRNA or control siRNA and transfected cells were assessed for sensitivity to ZN-c3 by measurement of reduction in percent cell density (FIG. 11). PPP2R1A siRNA mediated knockdown of PPP2R1A was evaluated by comparison of PPP2R1A protein expression via western blot in conditions treated with siCTRL and siPPPR12A with vinculin used as a control (FIG. 12). Knockdown of PPP2R1A by siRNA was limited in HEC1B cells, due to the missense mutations W257L and L429F within PPP2R1A in this cell line.

The subject of the next test is HEC-59 cells. Described as above. The note with it: 72 h, HEC-59 cells (PPP2R1A wild-type). On the procedure:
as §1, §2, §3

The subject of another test is H1975 cells. Described as above. The note with it: Homo sapiens, NCI-H1975, 72 h. The protocol:
FIG. 3 depicts the percent cell density of H1975 (a second non-small cell lung cancer cell line) cells after treatment with a 10-point dose response of ZN-c3 for 72 hours, comparing cells transfected with siRNA to PPP2R1A against those transfected with a scrambled control siRNA. Percent cell density is calculated using cell titer glow analysis. PPP2R1A siRNA transfected cells have approximately 3.7-fold increase in sensitivity to ZN-c3 (TABLE 2).
The effect of PPP2R1A knockdown on influencing cancer cell susceptibility to ZN-c3 was evaluated. Various cancer cell lines were transfected with PPP2R1A siRNA or control scrambled siRNA and the cells were treated with a 10 point dose response of ZN-c3 for 72 hours. Percent cell density was calculated using cell titer glow analysis. The PPP2R1A siRNA targeted the following bases Chr.19: 52189802-52226425. SiRNA transfection was started 48 hours prior to treatment with ZN-c3. […]
A second non-small cell lung cancer cell line H1975 was treated with PPP2R1A siRNA or control siRNA and transfected cells were assessed for sensitivity to ZN-c3 by measurement of reduction in percent cell density (FIG. 3). PPP2R1A siRNA mediated knockdown of PPP2R1A was evaluated by comparison of PPP2R1A expression in conditions treated with siCTRL and siPPPR12A (FIG. 4).

For the molecule `C=CCn1c(=O)c2cnc(Nc3ccc(N4CCN(C)CC4)cc3)nc2n1-c1ccc2c(n1)[C@@](O)(CC)CC2` [ZN-c3, (R)-2-allyl-1-(7-ethyl-7-hydroxy-6,7-dihydro-5H-cyclopenta[b]pyridin-2-yl)-6-((4-(4-methylpiperazin-1-yl)phenyl)amino)-1,2-dihydro-3H-pyrazolo[3,4-d]pyrimidin-3-one], the “percent inhibition of cell growth” value in test [1] is listed as “approximately 25%”. Further, the half-maximal effective concentration (EC50) (usually the concentration needed to bring the measured effect to its halfway point) in test [2] (sgNT (non-targeting guide RNA)) turned out to be 0.386 µM; in test [2] (sgPPP2R1A (CRISPR knockout)) it was 0.224 µM; in the test on HEC1B cells (siCTRL) it was 0.707 µM; in the test with HEC1B cells (siPPP2R1A), 0.49 µM; with HEC-59 cells (siCTRL), 1.04 µM; with HEC-59 cells (siPPP2R1A), 0.436 µM. The EC50 with H1975 cells (siCTRL) came to 0.559 µM; in the test with H1975 cells (siPPP2R1A), 0.15 µM.
